Measured values taken from patent US5840692A, “Peptide fragments and analogs of thrombospondin” (Allegheny University of the Health Sciences, priority 1995, dated 1998).
Values joined by “and” are separate entries in the source; they are usually repeats but may differ in a detail not shown here. Identical values can stand only once. Residues, ends and D or L forms follow the SMILES beside them.

Legend:
[1] = system: Mouse B16 F10 melanoma cells; assay: Direct adhesion assay: melanoma cells adhering to ligand-coated wells; assay type: cell-based; conditions: for Adhesion as % Thrombospondin: absorbed compound 2 μg per well, B16 F10 melanoma cells, 1 hour at 37° C., cell protein by BCA, absorbance 562 nm; for adhesive properties (in words): melanoma cell adhesion to coated peptide
Protocol: (§1) It is believed that thrombospondin acts in metastasis through its adhesive properties. An assay was developed, generally in accordance with the disclosure of Tuszynski et al. (Anal. Bio. (1990) 184:189-91) which evaluates the ability of melanoma cells to adhere to the thrombospondin fragments or analogs of the invention. In this assay, wells of a 96-well microtiter dish (Costar, Cambridge, Mass.) were incubated for two to three hours with 50 μl of a 40 μg/ml solution of various ligands in 20 mM NaCl, pH 7.3. Thrombospondin (purified by the method of Tuszynski et al., J. Biol. Chem. (1985) 260:12240-5), fibronectin (Sigma Chemical Co., Missouri) served as the positive control. Bovine serum albumin (BSA) (Sigma Chemical Co.) served as the negative control. Thrombospondin analogs of the invention p1, p5 and p6 were synthesized as described in Examples 1 through 3. Following peptide adhesion to the microtiter dish, the wells were aspirated, treated with 200 μl phosphate buffered saline (PBS) containing 1% BSA for 1 hour and then washed three more times with 200 μl PBS.
(§2) Mouse B16 F10 melanoma cells were grown and harvested during log phase of growth using standard procedures. The harvested cells were washed two times in serum-free Dulbecco's minimum essential medium (DMEM) (Flow Laboratories) and suspended in DMEM at a final concentration of 4×10^5 cells/ml. Of the cell suspension 100 μl was added to each well of the microtiter dish containing the various ligands and the dish incubated at 37° C. in a CO2 incubator for 1 hour. Nonadherent cells were removed by aspiration and the wells washed three times with 200 μl of PBS. The total cell-associated protein was determined by dissolving the attached cells directly in the microtiter wells with 200 μl of the Pierce BCA working solution (Pierce Chem. Co. Booklet No. 23225 (1987)). The plate was covered with an adhesive mylar sheet (Flow Labs) and incubated at 60° C. for 30 minutes. Plates were allowed to cool to room temperature, cover sheets were removed, and the absorbance of each well was determined at 562 nm with a microtiter plate reader (Biotek, Burlington, Vt.)

[2] = system: platelets in platelet-rich-plasma (PRP); assay: Platelet aggregation assay in platelet-rich plasma, ADP-initiated; assay type: cell-based; conditions: 0.5 ml PRP, aggregation initiated with 1 μM ADP
Protocol: Platelet aggregation was monitored on a single-channel aggregometer equipped to measure luminescence (Chromo-Log, Havertown, Pa.). Platelet-rich-plasma (PRP) was obtained from whole blood anti-coagulated with 0.38% Sodium Citrate by centrifugation at 150×g for 20 minutes. Peptides were added to 0.5 ml of PRP and aggregation initiated with 1 μM ADP. Buffer blanks contained diluent (water) but no peptide.

[3] = system: melanoma cells (adhesion to absorbed intact thrombospondin); assay: Competitive assay to measure thrombospondin specific adhesion to melanoma cells; assay type: cell-based, mouse; conditions: for competition with thrombospondin for adhesion to melanoma cells (in words): at this concentration (100 μg/ml)
Protocol: as §1, §2
The direct adhesion assay of Example 5 was modified to measure the ability of the peptide compounds of the invention to compete with intact thrombospondin for adhesion to melanoma cells.
In this assay, intact thrombospondin is absorbed onto microtiter dishes as described in Example 5. […]

[4] = system: B16 F10 mouse melanoma cells; assay: Antimetastatic activity in vivo, lung tumors after i.v. melanoma cells; set-up: species or system C57 black mice; conditions: for % buffer control (number of lung tumors): i.v. with 5×10^5 B16 F10 cells, lung tumors counted after 16 days; for number of tumors versus controls (in words) / size of lung tumors (in words): treated C57 black mice, 16 days
Excerpt: Briefly, C57 black mice were intravenously injected with 5×10^5 B16 F10 mouse melanoma cells in the presence of either control buffer (Hepes buffered saline, pH 7.4), or the indicated amount of peptide compound of the invention p1, p5 or p6. After 16 days, the mice were sacrificed and the number of lung tumors counted.

[5] = system: platelets (adhesion to absorbed fibronectin (FN)); assay: Competitive assay, platelet adhesion to absorbed fibronectin (FN); assay type: cell-based; conditions: for % Buffer Control (platelet adhesion): absorbed protein FN, platelets preincubated with 250 μg/ml compound
Protocol: (§3) The number of adherent platelets was essentially determined as previously described (Tuszynski et al., Anal. Bio. supra). Briefly, 100 μl of 5×10^8 platelets/ml washed as previously described (Tuszynski, et al., Blood 72, 109-225, 1988) were added to microtiter plates, the wells of which were treated with 50 μl of a 40 μg/ml peptide or protein solution (Hepes buffered saline, pH 7.4). Solutions were dried at room temperature after incubation in a fume hood for two hours. Wells were blocked for one hour with 1% BSA. Platelets (100 μl) were incubated in the wells for 30 minutes and non-adherent platelets were removed by aspiration. Wells were washed 3× with 200 μl of Hepes buffered saline, pH 7.4. The number of adherent platelets was determined by measuring the platelet-derived protein using the BCA protein assay.
(§4) The direct adhesion assay of Example 7 was modified to measure the ability of the peptide compounds of the invention to compete with intact thrombospindin or fibronectin for adhesion of platelets.
(§5) In this assay, thrombospondin (TSP) or fibronectin (FN) was absorbed onto microtiter dish as described in Example 7. The assay was similar to Example 7 except that before platelets were added to the microtiter dishes they were preincubated with 250 μg/ml of various ligands.

[6] = system: platelets (adhesion to absorbed thrombospondin (TSP)); assay: Competitive assay, platelet adhesion to absorbed thrombospondin (TSP); assay type: cell-based; conditions: for % Buffer Control (platelet adhesion): absorbed protein TSP, platelets preincubated with 250 μg/ml compound
Protocol: as §3, §4, §5

platelets = assay: Direct platelet adhesion assay; assay type: cell-based; conditions: for adherence to platelets (in words): at this concentration (40 μg/ml coating solution); for Adherence as % Control: wells treated with 50 μl of 40 μg/ml peptide or protein, platelets incubated 30 minutes, BCA protein assay
Protocol: as §3

[7] = cells preincubated with 10 μg/ml compound
[8] = cells preincubated with 50 μg/ml compound
[9] = cells preincubated 15 minutes with 100 μg/ml compound
[10] = cells preincubated with 200 μg/ml compound
[11] = cells preincubated with 300 μg/ml compound

Molecule | Adhesion as % Thrombospondin [1] [%] | adhesive properties (in words) [1] | inhibition of platelet aggregation (in words, FIG. 1) [2] | competition with thrombospondin for adhesion to melanoma cells (in words) [3] | % of buffer control (melanoma cell adhesion to thrombospondin) [3, 7] [%] | % of buffer control (melanoma cell adhesion to thrombospondin) [3, 8] [%] | % buffer control (number of lung tumors) ([4]; 30 μg/mouse) [%] | number of tumors versus controls (in words) [4] | size of lung tumors (in words) [4] | competition with fibronectin for platelet adhesion (in words) ([5]; 250 μg/ml) | % Buffer Control (platelet adhesion) [5] [%] | competition with thrombospondin for platelet adhesion (in words) ([6]; 250 μg/ml) | % Buffer Control (platelet adhesion) [6] [%] | adherence to platelets (in words) (platelets) | Adherence as % Control (platelets) [%] | % of buffer control (melanoma cell adhesion to thrombospondin) [3, 9] | % of buffer control (melanoma cell adhesion to thrombospondin) [3, 10] [%] | % of buffer control (melanoma cell adhesion to thrombospondin) [3, 11] [%] | % buffer control (number of lung tumors) ([4]; 100 μg/mouse) [%] | % buffer control (number of lung tumors) ([4]; 300 μg/mouse) [%]
CC(C)[C@H](NC(=O)[C@H](CO)NC(=O)[C@H](CS)NC(=O)[C@@H]1CCCN1C(=O)[C@H](CO)NC(=O)[C@@H](N)Cc1c[nH]c2ccccc12)C(=O)N[C@H](C(=O)N[C@@H](CS)C(=O)NCC(=O)O)[C@@H](C)O [Compound p1, WSPCSVTCG] (H-WSPCSVTCG-OH) | 98 | display adhesive properties | inhibit platelet aggregation | able to effectively compete with thrombospondin | 49 | 40 | 49 | statistically fewer tumors than controls | smaller in size | did not compete with fibronectin | 108 | effectively competed with thrombospondin | 71 | adhere to platelets | – | – | – | – | – | –
Thrombospondin: large molecular weight 180 kD glycoprotein of three identical disulfide-linked polypeptide chains; purified intact protein, positive control | 100 | – | – | – | – | – | – | – | – | – | – | – | – | – | 100 | – | – | – | – | –
WSPCSVTCGNH2 [Compound p6] | 70 | display adhesive properties | inhibit platelet aggregation | compete to a lesser degree | – | – | 91 | statistically fewer tumors than controls | smaller in size | – | 96 | – | 98 | adhere to platelets | 38 | 89% | 74 | 74 | 102 | 50
fWSPCSVTCGNH2 [Compound p5] | 79 | display adhesive properties | inhibit platelet aggregation | compete to a lesser degree | 99 | 104 | 87 | statistically fewer tumors than controls | – | – | 109 | – | 107 | – | 2.1 | 62% and 108% and 83% | 89 | 83 | – | –
fibronectin | – | – | – | – | – | – | – | – | – | – | – | – | – | – | 83 | – | – | – | – | –
